pEC50, pIC50: −log10 of the molar value. One block for each compound: values may come before it. The source made the active and inactive calls. The rule behind the calls is not given here.
What was measured:
[1] = target: T1, Casein kinase I isoform delta (Homo sapiens, UniProt P48730); assay: Inhibition of CK1delta in HEK293T cells assessed as stimulation of Wnt/beta-catenin signaling at 5 uM after 22 hrs in presence of Wnt3A-conditioned medium by Super-top flash reporter gene assay relative to control; assay type: cell-based
Target sequence in this assay (P48730 whole entry, looked up, the tested form may be a part, canonical isoform): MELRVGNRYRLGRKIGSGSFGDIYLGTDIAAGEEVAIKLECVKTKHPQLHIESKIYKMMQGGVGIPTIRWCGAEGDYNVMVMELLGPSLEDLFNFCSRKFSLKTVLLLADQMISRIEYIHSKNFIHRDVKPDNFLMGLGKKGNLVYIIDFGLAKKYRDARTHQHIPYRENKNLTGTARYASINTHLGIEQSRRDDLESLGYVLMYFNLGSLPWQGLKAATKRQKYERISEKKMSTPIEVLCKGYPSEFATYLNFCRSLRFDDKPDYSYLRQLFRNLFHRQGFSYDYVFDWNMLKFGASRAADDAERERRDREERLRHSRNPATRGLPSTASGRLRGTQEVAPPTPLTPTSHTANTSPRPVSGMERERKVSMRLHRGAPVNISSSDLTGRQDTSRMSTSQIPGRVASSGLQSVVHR

[2] = target: T2, Casein kinase I isoform delta (Rattus norvegicus, UniProt Q06486); assay: Inhibition of rat recombinant CK1delta kinase domain using alpha-casein as substrate after 30 mins in presence of [gamma-32P]-ATP by Cherenkov counting method
[3] = target: T2, Casein kinase I isoform delta; assay: Inhibition of full-length rat GST-tagged CK1delta using alpha-casein as substrate after 30 mins in presence of [gamma-32P]-ATP by Cherenkov counting method
[4] = target: Casein kinase I isoform delta (Rattus norvegicus, UniProt Q06486, M82F); assay: Inhibition of rat GST-tagged CK1delta M82F mutant at 10 uM using alpha-casein as substrate after 30 mins in presence of [gamma-32P]-ATP by Cherenkov counting method
[5] = target: Casein kinase I isoform epsilon (Homo sapiens, UniProt P49674); assay: Inhibition of human recombinant CK1epsilon using alpha-casein as substrate after 30 mins in presence of [gamma-32P]-ATP by Cherenkov counting method
[6] = target: T3, Casein kinase I isoform alpha (Bos taurus) (UniProt P67827); assay: Inhibition of bovine GST-tagged CK1alpha at 1 uM using alpha-casein as substrate after 30 mins in presence of [gamma-32P]-ATP by Cherenkov counting method
T3 sequence (whole entry): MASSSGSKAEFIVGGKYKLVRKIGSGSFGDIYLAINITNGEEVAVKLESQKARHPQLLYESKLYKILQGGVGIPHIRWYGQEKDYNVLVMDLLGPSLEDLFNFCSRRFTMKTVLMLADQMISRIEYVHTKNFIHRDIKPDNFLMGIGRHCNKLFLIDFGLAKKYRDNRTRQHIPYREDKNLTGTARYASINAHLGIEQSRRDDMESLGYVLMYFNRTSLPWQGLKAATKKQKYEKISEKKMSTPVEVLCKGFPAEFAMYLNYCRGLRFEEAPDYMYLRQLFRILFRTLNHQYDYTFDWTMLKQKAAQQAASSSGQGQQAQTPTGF

[7] = target: Casein kinase I isoform gamma-3 (Homo sapiens) (UniProt Q9Y6M4); assay: Inhibition of human GST-tagged CK1gamma3 at 1 uM using alpha-casein as substrate after 30 mins in presence of [gamma-32P]-ATP by Cherenkov counting method
[8] = target: T1, Casein kinase I isoform delta; assay: Inhibition of human recombinant CK1delta at 1 uM after 60 mins in presence of [gamma-33P]-ATP by scintillation counting method
Target sequence in this assay (P48730 whole entry, looked up, the tested form may be a part, canonical isoform): as the sequence (P48730 whole entry, looked up, the tested form may be a part, canonical isoform) above

[9] = target: T4, Protein-serine O-palmitoleoyltransferase porcupine (Homo sapiens, UniProt Q9H237); assay: Inhibition of porcupine in HEK293T cells transfected with Wnt3A-expressing vector assessed as suppression of Wnt/beta-catenin signaling after 22 hrs by Super-top flash reporter gene assay; assay type: cell-based
T4 sequence (Q9H237 whole entry): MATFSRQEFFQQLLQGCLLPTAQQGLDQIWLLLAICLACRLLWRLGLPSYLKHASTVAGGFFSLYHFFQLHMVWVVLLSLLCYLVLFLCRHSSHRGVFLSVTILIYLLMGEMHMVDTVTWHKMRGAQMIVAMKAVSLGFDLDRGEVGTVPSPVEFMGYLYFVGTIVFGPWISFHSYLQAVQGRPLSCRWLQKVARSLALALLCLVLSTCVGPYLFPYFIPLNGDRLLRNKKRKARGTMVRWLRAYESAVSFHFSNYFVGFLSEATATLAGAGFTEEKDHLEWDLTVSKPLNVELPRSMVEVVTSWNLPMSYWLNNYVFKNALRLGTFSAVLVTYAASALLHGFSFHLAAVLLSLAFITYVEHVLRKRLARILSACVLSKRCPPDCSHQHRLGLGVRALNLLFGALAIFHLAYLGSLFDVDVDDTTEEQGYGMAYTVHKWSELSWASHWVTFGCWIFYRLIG

[10] = target: T5, Protein-serine O-palmitoleoyltransferase porcupine (Homo sapiens) (UniProt Q9H237); assay: Inhibition of porcupine in HEK293T cells transfected with Wnt3A-expressing vector assessed as suppression of Wnt/beta-catenin signaling at 5 uM after 22 hrs by Super-top flash reporter gene assay relative to control; assay type: cell-based
T5 sequence (whole entry): T4 sequence (Q9H237 whole entry)

[11] = target: T1, Casein kinase I isoform delta; assay: Inhibition of CK1delta in HEK293T cells assessed as stimulation of Wnt/beta-catenin signaling after 22 hrs in presence of Wnt3A-conditioned medium by Super-top flash reporter gene assay; assay type: cell-based
Target sequence in this assay (P48730 whole entry, the tested form may be a part, canonical isoform): as the sequence (P48730 whole entry, looked up, the tested form may be a part, canonical isoform) above

[12] = tested on: HEK-293T; assay: Upregulation of renilla luciferase expression in HEK293T cells transfected with Wnt3A-expressing vector up to 5 uM after 22 hrs by luminescence assay relative to control; assay type: cell-based; settings: human
[13] = tested on: HEK-293T; assay: Upregulation of renilla luciferase expression in HEK293T cells up to 5 uM after 22 hrs in presence of Wnt3A-conditioned medium by luminescence assay relative to control; assay type: cell-based; settings: human
[14] = tested on: HEK-293T; assay: Toxicity in HEK293T cells at 0.5 to 5 uM after 6 to 22 hrs by CellTiter-Glo assay; assay type: cell-based; settings: human
[15] = target: Casein kinase I isoform delta (Rattus norvegicus) (UniProt Q06486); assay: Inhibition of full-length rat GST-tagged CK1delta assessed as residual activity at 10 uM using alpha-casein as substrate after 30 mins in presence of [gamma-32P]-ATP by Cherenkov counting method
[16] = target: Casein kinase I isoform delta (Rattus norvegicus) (UniProt Q06486); assay: Inhibition of rat recombinant CK1delta kinase domain assessed as residual activity at 10 uM using alpha-casein as substrate after 30 mins in presence of [gamma-32P]-ATP by Cherenkov counting method
[17] = Selectivity ratio of IC50 for human CK1epsilon to IC50 for full-length rat GST-tagged CK1delta
[18] = Selectivity ratio of IC50 for human CK1epsilon to IC50 for rat recombinant CK1delta kinase domain
[19] = target: Casein kinase I isoform delta (Rattus norvegicus) (UniProt Q06486); assay: Ratio of IC50 for full-length rat GST-tagged CK1delta to IC50 for rat recombinant CK1delta kinase domain
[20] = target: Casein kinase I isoform delta (Rattus norvegicus) (UniProt Q06486); assay: Competitive inhibition of full-length rat GST-tagged CK1delta at IC50 using alpha-casein as substrate after 30 mins in presence of 10 to 500 uM ATP and [gamma-32P]-ATP by Cherenkov counting method
[21] = target: T1, Casein kinase I isoform delta; assay: Inhibition of human recombinant CK1delta assessed as residual activity at 1 uM after 60 mins in presence of [gamma-33P]-ATP by scintillation counting method
Target sequence in this assay (P48730 whole entry, looked up, the tested form may be a part, canonical isoform): as the sequence (P48730 whole entry, looked up, the tested form may be a part, canonical isoform) above

[22] = target: Tyrosine-protein kinase ZAP-70 (Homo sapiens) (UniProt P43403); assay: Inhibition of recombinant human full length GST/His-tagged ZAP70 expressed in Sf9 cells assessed as residual activity at 1 uM after 60 mins in presence of [gamma-33P]-ATP by scintillation counting method
[23] = target: Serine/threonine-protein kinase tousled-like 2 (Homo sapiens) (UniProt Q86UE8); assay: Inhibition of recombinant human N-terminal FLAG/C-terminal HIS8-tagged TLK2 assessed as residual activity at 1 uM after 60 mins in presence of [gamma-33P]-ATP by scintillation counting method
[24] = target: Tyrosine-protein kinase ZAP-70 (Homo sapiens) (UniProt P43403); assay: Inhibition of recombinant human ZAP70 at 5 nM to 10 uM using poly (L-glutamic acid-L-tyrosine) as substrate after 30 mins in presence of [gamma-32P]-ATP by Cherenkov counting method
[25] = target: Serine/threonine-protein kinase tousled-like 2 (Homo sapiens) (UniProt Q86UE8); assay: Inhibition of recombinant human TLK2 at 5 nM to 10 uM using alpha-casein as substrate after 30 mins in presence of [gamma-32P]-ATP by Cherenkov counting method
[26] = Antiproliferative activity against human A818-6 cells after 48 hrs by MTT assay; assay type: functional, cell-based
[27] = tested on: MIA PaCa-2; assay: Antiproliferative activity against human MIAPaCa2 cells after 48 hrs by MTT assay; assay type: functional, cell-based; settings: MIA PaCa-2, 48 h
[28] = tested on: PANC-1; assay: Antiproliferative activity against human PANC1 cells after 48 hrs by MTT assay; assay type: functional, cell-based; settings: PANC-1, 48 h
[29] = Antiproliferative activity against human Panc89 cells after 48 hrs by MTT assay; assay type: functional, cell-based
[30] = tested on: HT-29; assay: Antiproliferative activity against human HT-29 cells after 48 hrs by MTT assay; assay type: functional, cell-based; settings: HT-29, 48 h
[31] = tested on: HEK293; assay: Antiproliferative activity against human HEK293 cells after 48 hrs by MTT assay; assay type: functional, cell-based; settings: HEK293, 48 h
[32] = tested on: SW-620; assay: Antiproliferative activity against human SW620 cells after 48 hrs by MTT assay; assay type: functional, cell-based; settings: SW-620, 48 h
[33] = tested on: CAPAN-1; assay: Antiproliferative activity against human Capan1 cells after 48 hrs by MTT assay; assay type: functional, cell-based; settings: CAPAN-1, 48 h
[34] = target: T1, Casein kinase I isoform delta; assay: Inhibition of CK1delta in human PANC1 cells assessed as residual activity at 2.33 uM using GST-tagged p53 (1 to 64 residues) as substrate after 48 hrs in presence of [gamma-32P]-ATP by Cherenkov counting method; assay type: cell-based
Target sequence in this assay (P48730 whole entry, looked up, the tested form may be a part, canonical isoform): as the sequence (P48730 whole entry, looked up, the tested form may be a part, canonical isoform) above

[35] = species: Homo sapiens; assay: Inhibition of Wnt/beta-catenin signaling in HEK293T cells after 22 hrs in presence of Wnt3A-conditioned medium by Super-top flash reporter gene assay; assay type: cell-based

Sequence of Casein kinase I isoform delta (Rattus norvegicus) (Q06486 whole entry, looked up, the tested form may be a part, canonical isoform): as the sequence (P48730 whole entry, looked up, the tested form may be a part, canonical isoform) above, with I381V counted along it
T2 sequence (Q06486 whole entry, the tested form may be a part, canonical isoform): as the sequence (P48730 whole entry, looked up, the tested form may be a part, canonical isoform) above, with I381V counted along it
Sequence of Casein kinase I isoform delta (Rattus norvegicus, UniProt Q06486, M82F) (Q06486 whole entry M82F, canonical isoform): as the sequence (P48730 whole entry, looked up, the tested form may be a part, canonical isoform) above, with M82F, I381V counted along it
Sequence of Casein kinase I isoform epsilon (P49674 whole entry, canonical isoform): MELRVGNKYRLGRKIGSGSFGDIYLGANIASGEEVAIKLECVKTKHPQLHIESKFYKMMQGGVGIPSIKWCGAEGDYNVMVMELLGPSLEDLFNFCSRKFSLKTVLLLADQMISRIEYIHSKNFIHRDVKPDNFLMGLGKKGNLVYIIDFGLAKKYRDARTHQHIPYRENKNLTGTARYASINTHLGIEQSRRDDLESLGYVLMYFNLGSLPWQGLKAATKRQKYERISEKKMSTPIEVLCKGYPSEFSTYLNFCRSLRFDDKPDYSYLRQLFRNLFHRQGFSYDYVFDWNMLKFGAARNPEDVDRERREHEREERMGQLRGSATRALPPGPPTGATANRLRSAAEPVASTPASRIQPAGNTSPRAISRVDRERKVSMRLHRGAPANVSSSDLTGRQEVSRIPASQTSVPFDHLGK
Sequence of Tyrosine-protein kinase ZAP-70 (Homo sapiens) (P43403 whole entry): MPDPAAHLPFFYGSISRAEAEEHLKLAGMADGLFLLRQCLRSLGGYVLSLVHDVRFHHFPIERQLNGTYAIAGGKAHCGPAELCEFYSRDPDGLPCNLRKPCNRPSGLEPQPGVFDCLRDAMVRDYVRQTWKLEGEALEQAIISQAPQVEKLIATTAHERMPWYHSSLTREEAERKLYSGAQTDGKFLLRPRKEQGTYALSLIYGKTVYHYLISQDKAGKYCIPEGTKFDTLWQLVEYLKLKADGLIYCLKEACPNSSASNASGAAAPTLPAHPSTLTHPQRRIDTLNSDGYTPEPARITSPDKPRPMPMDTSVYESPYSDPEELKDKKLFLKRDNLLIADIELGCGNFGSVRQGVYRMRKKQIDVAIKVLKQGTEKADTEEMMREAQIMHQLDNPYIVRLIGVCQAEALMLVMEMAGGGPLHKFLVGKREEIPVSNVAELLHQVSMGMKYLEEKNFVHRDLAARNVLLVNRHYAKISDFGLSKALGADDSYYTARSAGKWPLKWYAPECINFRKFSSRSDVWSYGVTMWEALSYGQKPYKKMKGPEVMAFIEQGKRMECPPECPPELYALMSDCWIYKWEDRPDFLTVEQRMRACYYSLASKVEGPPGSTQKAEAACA
Sequence of Serine/threonine-protein kinase tousled-like 2 (Homo sapiens) (Q86UE8 whole entry, looked up): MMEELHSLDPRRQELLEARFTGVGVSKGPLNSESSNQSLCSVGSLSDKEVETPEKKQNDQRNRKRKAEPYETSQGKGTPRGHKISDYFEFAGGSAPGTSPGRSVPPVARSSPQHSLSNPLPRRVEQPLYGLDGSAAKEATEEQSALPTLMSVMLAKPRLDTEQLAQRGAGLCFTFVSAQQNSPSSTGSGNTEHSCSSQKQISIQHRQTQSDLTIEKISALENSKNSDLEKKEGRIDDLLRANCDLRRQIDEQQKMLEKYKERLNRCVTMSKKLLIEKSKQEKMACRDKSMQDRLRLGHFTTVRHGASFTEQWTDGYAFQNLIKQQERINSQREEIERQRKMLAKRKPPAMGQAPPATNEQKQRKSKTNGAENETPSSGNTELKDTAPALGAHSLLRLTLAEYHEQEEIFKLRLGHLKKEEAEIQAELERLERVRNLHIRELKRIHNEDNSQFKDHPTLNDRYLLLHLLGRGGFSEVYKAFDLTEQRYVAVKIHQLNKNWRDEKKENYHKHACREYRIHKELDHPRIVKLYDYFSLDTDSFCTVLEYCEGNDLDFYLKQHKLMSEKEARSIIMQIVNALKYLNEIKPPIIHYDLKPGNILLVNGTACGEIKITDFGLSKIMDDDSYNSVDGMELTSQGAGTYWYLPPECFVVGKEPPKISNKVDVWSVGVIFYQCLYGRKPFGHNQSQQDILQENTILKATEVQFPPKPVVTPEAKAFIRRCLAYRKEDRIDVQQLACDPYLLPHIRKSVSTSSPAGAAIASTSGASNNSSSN
Sequence of Casein kinase I isoform gamma-3 (Homo sapiens) (Q9Y6M4 whole entry, looked up, canonical isoform): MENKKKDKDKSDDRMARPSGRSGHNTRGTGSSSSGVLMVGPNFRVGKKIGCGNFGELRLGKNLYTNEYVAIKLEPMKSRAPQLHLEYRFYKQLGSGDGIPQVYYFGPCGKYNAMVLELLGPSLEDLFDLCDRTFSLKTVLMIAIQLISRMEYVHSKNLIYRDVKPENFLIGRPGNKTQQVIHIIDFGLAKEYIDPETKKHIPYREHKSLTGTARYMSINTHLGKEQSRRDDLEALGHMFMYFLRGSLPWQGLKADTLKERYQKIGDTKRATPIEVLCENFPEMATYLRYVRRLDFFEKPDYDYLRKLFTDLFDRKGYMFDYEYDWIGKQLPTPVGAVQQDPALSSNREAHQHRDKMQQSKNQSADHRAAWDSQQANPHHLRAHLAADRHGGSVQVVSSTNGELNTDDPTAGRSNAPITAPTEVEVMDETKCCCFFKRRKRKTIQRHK

Emax [1]: 225%
pIC50 [2]: 7.05
pIC50 [3]: 6.39
pIC50 [4]: 7.05
pIC50 [5]: 6.25
inhibition [6]: Active
inhibition [7]: Active
inhibition [8]: Active
pIC50 [9]: 6.15
Imax [10]: 38.8%
pEC50 [11]: 5.83
fold change (FC) [12]: <= 1.3
fold change (FC) [13]: <= 1.5
SMILES: COc1ccc(Cn2c(SCC(=O)Nc3nc4ccc(C(F)(F)F)cc4s3)nc3c(c2=O)SCC3)cc1

SMILES: Fc1cccc(-n2cnc3c(NCc4nc5ccc(F)c(F)c5[nH]4)nc(N4CCOCC4)nc32)c1
Activity [14]: Toxic

Activity [15]: 23%
Activity [16]: 19%
pIC50 [2]: 6.49
pIC50 [3]: 6.03
pIC50 [4]: 7.40
pIC50 [5]: 5.39
Ratio IC50 [17]: 4 to 7
Ratio IC50 [18]: < 17
Ratio IC50 [19]: 4
inhibition [20]: Active
Activity [21]: 55%
Activity [22]: 54%
Activity [23]: 59%
inhibition [24]: inactive
inhibition [25]: inactive
pEC50 [27]: 5.72
pEC50 [28]: 5.63
pEC50 [30]: 5.33
pEC50 [32]: 5.72
Activity [34]: 66%
pIC50 [9]: 6.80
Imax [10]: 5.5%
fold change (FC) [12]: <= 1.3
fold change (FC) [13]: <= 1.5
SMILES: Cc1ccc2nc(NC(=O)CSc3nc4c(c(=O)n3-c3ccccc3)SCC4)sc2c1
pEC50 [26]: 5.05
pEC50 [29]: 5.41
pEC50 [31]: 5.56
pEC50 [33]: 5.69
inhibition [35]: inactive
